Laboratory results from patent US5451564A, “Antimicrobial composition comprising N-hydroxy heterocyclic thiones” (priority 1991, dated 1995).
Read-outs that look alike come from different tables or passages of the source.

Key:
[1] = test system: mixed suspension of Pseudomonas aeruginosa, Proteus rettgeri, Serratia marcescans, Aeromonas hydrophila, Alcaligenes species, Pseudomonas cepacia and …; assay type: cell-based, mixed bacteria; design: key: 5: Confluent growth; 4: Heavy growth; 3: Moderate growth; 2: Slight growth; 1: Trace growth; 0: No growth
Method: (§1) An inoculum was prepared containing Pseudomonas aeruginosa, Proteus rettgeri, Serratia marcescans, Aeromonas hydrophila, Alcaligenes species, Pseudomonas cepacia and Pseudomonas putida by culturing the individual organisms onto nutrient agar and incubating for 24 hours at 30° C. Each of the individual suspensions of the test organisms were then prepared at a concentration of 10E8 cfu/ml in one quarter strength Ringer's solution by means of a Thoma counting chamber. A mixed suspension was obtained by mixing equal volumes of the individual suspensions. This procedure was repeated for each of the three challenges to which the test substrates were subjected, and the concentration of micro-organisms in each substrate after challenge was 2×10E6 cfu/ml.
(§2) Aliquots (50 parts) of a standard laboratory acrylic latex and an emulsion paint were prepared containing 0, 10, 25, 50, 100, 125, 250, 500 and 750 ppm of the 1:2 zinc complex of 3-hydroxy-4-methylthiazol-2(3H)thione which was prepared as a 1% dispersion in an aqueous solution of 0.1M tetrasodium pyrophosphate. A 1% dispersion of the 1:2 zinc complex of 1-hydroxy-2-pyridinethiol in an aqueous solution of 0.1M tetrasodiumpyrophosphate was evaluated in the same manner.
(§3) The test substrates were then stored at 40° C. for seven days and were then challenged on three separate occasions with 1 part by volume of the mixed suspension of micro-organisms. All the substrates were then incubated at 30° C. and examined for the presence of viable bacteria after 1, 3 and 7 days after each challenge (Phase 1).
(§4) Those samples which had achieved sterility were then stored for a further 8 weeks at 30° C., and were then rechallenged and the number of viable organisms again determined (Phase 2).
(§5) Viable bacteria were detected by streaking small aliquots onto nutrient agar followed by incubation at 30° C. for 2 days. The presence or absence of colonies was determined visually. […]

[2] = test system: mixed suspension of Pseudomonas aeruginosa, Proteus rettgeri, Serratia marcescans, Aeromonas hydrophila, Alcaligenes species, Pseudomonas cepacia and …; assay: repeated bacterial challenge test in acrylic (emulsion) paint; assay type: cell-based, mixed bacteria; design: key: 5: Confluent growth; 4: Heavy growth; 3: Moderate growth; 2: Slight growth; 1: Trace growth; 0: No growth
Method: as §1, §2, §3, §4, §5

[3] = aqueous solubility of zinc complex after milling in pyrophosphate solution and dilution with distilled water until clear; assay type: physicochemical
Method: The concentration of the 2:1 zinc complex was then determined.
The zinc complex was milled in a 0.1 molar solution of tetrasodium pyrophosphate as described in Example 1. This was then diluted with distilled water until a clear solution was obtained.
These solutions were prepared by the method described in Example 1.

Cc1csc(=S)n1[O-].Cc1csc(=S)n1[O-].[Zn+2] [Compound A, 1:2 zinc complex of 3-hydroxy-4-methylthiazol-2(3H)thione]
0: growth rating ([1]; latex 50 ppm, Phase 1 Chall 2, day 7) | growth rating ([1]; latex 50 ppm, Phase 1 Chall 3, day 7) | growth rating ([1]; latex 100 ppm, Phase 1 Chall 1, day 7) | growth rating ([1]; latex 100 ppm, Phase 1 Chall 2, day 7) | growth rating ([1]; latex 100 ppm, Phase 1 Chall 3, day 7) | growth rating ([1]; latex 125 ppm, Phase 1 Chall 1, day 7) | growth rating ([1]; latex 125 ppm, Phase 1 Chall 2, day 7) | growth rating ([1]; latex 125 ppm, Phase 1 Chall 3, day 7) | growth rating ([1]; latex 250 ppm, Phase 1 Chall 1, day 7) | growth rating ([1]; latex 250 ppm, Phase 1 Chall 2, day 7) | growth rating ([1]; latex 250 ppm, Phase 1 Chall 3, day 7) | growth rating ([1]; latex 500 ppm, Phase 1 Chall 1, day 7) | growth rating ([1]; latex 500 ppm, Phase 1 Chall 2, day 7) | growth rating ([1]; latex 500 ppm, Phase 1 Chall 3, day 7) | growth rating ([1]; latex 750 ppm, Phase 1 Chall 1, day 7) | growth rating ([1]; latex 750 ppm, Phase 1 Chall 2, day 7) | growth rating ([1]; latex 750 ppm, Phase 1 Chall 3, day 3) | growth rating ([1]; latex 750 ppm, Phase 1 Chall 3, day 7) | growth rating ([2]; paint 10 ppm, Phase 1 Chall 1, day 7) | growth rating ([2]; paint 25 ppm, Phase 1 Chall 1, day 7) | growth rating ([2]; paint 25 ppm, Phase 1 Chall 2, day 7) | growth rating ([2]; paint 50 ppm, Phase 1 Chall 1, day 7) | growth rating ([2]; paint 50 ppm, Phase 1 Chall 2, day 7) | growth rating ([2]; paint 50 ppm, Phase 1 Chall 3, day 7)
4: growth rating ([1]; latex 10 ppm, Phase 1 Chall 1, day 7) | growth rating ([1]; latex 25 ppm, Phase 1 Chall 1, day 7) | growth rating ([1]; latex 50 ppm, Phase 1 Chall 2, day 3) | growth rating ([1]; latex 50 ppm, Phase 1 Chall 3, day 3) | growth rating ([1]; latex 100 ppm, Phase 1 Chall 2, day 1) | growth rating ([1]; latex 100 ppm, Phase 1 Chall 2, day 3) | growth rating ([1]; latex 100 ppm, Phase 1 Chall 3, day 1) | growth rating ([1]; latex 100 ppm, Phase 1 Chall 3, day 3) | growth rating ([1]; latex 125 ppm, Phase 1 Chall 2, day 1) | growth rating ([1]; latex 125 ppm, Phase 1 Chall 2, day 3) | growth rating ([1]; latex 125 ppm, Phase 1 Chall 3, day 1) | growth rating ([1]; latex 125 ppm, Phase 1 Chall 3, day 3) | growth rating ([1]; latex 250 ppm, Phase 1 Chall 2, day 1) | growth rating ([1]; latex 250 ppm, Phase 1 Chall 2, day 3) | growth rating ([1]; latex 250 ppm, Phase 1 Chall 3, day 1) | growth rating ([1]; latex 250 ppm, Phase 1 Chall 3, day 3) | growth rating ([1]; latex 500 ppm, Phase 1 Chall 2, day 1) | growth rating ([1]; latex 500 ppm, Phase 1 Chall 2, day 3) | growth rating ([1]; latex 750 ppm, Phase 1 Chall 1, day 1) | growth rating ([2]; paint 25 ppm, Phase 1 Chall 2, day 3) | growth rating ([2]; paint 25 ppm, Phase 1 Chall 3, day 7) | growth rating ([2]; paint 50 ppm, Phase 1 Chall 2, day 3) | growth rating ([2]; paint 50 ppm, Phase 1 Chall 3, day 3)
3: growth rating ([1]; latex 25 ppm, Phase 1 Chall 2, day 7) | growth rating ([1]; latex 100 ppm, Phase 1 Chall 1, day 3) | growth rating ([1]; latex 125 ppm, Phase 1 Chall 1, day 3) | growth rating ([1]; latex 250 ppm, Phase 1 Chall 1, day 3) | growth rating ([1]; latex 500 ppm, Phase 1 Chall 1, day 3) | growth rating ([1]; latex 500 ppm, Phase 1 Chall 3, day 1) | growth rating ([1]; latex 750 ppm, Phase 1 Chall 2, day 1) | growth rating ([1]; latex 750 ppm, Phase 1 Chall 2, day 3) | growth rating ([2]; paint 25 ppm, Phase 1 Chall 1, day 3) | growth rating ([2]; paint 50 ppm, Phase 1 Chall 1, day 3)
about 5 ppm: aqueous solubility ([3]; finely milled sample, no pyrophosphate)
about 10,000 ppm: solubility in the presence of the pyrophosphate anion ([3]; milled in 0.1 molar tetrasodium pyrophosphate, diluted with distilled water)
5: growth rating ([1]; latex 10 ppm, Phase 1 Chall 1, day 1) | growth rating ([1]; latex 10 ppm, Phase 1 Chall 1, day 3) | growth rating ([1]; latex 10 ppm, Phase 1 Chall 2, day 1) | growth rating ([1]; latex 10 ppm, Phase 1 Chall 2, day 3) | growth rating ([1]; latex 10 ppm, Phase 1 Chall 2, day 7) | growth rating ([1]; latex 10 ppm, Phase 1 Chall 3, day 1) | growth rating ([1]; latex 10 ppm, Phase 1 Chall 3, day 3) | growth rating ([1]; latex 10 ppm, Phase 1 Chall 3, day 7) | growth rating ([1]; latex 25 ppm, Phase 1 Chall 1, day 1) | growth rating ([1]; latex 25 ppm, Phase 1 Chall 1, day 3) | growth rating ([1]; latex 25 ppm, Phase 1 Chall 2, day 1) | growth rating ([1]; latex 25 ppm, Phase 1 Chall 2, day 3) | growth rating ([1]; latex 25 ppm, Phase 1 Chall 3, day 1) | growth rating ([1]; latex 25 ppm, Phase 1 Chall 3, day 3) | growth rating ([1]; latex 25 ppm, Phase 1 Chall 3, day 7) | growth rating ([1]; latex 50 ppm, Phase 1 Chall 1, day 1) | growth rating ([1]; latex 50 ppm, Phase 1 Chall 2, day 1) | growth rating ([1]; latex 50 ppm, Phase 1 Chall 3, day 1) | growth rating ([1]; latex 100 ppm, Phase 1 Chall 1, day 1) | growth rating ([1]; latex 125 ppm, Phase 1 Chall 1, day 1) | growth rating ([1]; latex 250 ppm, Phase 1 Chall 1, day 1) | growth rating ([1]; latex 500 ppm, Phase 1 Chall 1, day 1) | growth rating ([2]; paint 10 ppm, Phase 1 Chall 1, day 1) | growth rating ([2]; paint 10 ppm, Phase 1 Chall 1, day 3) | growth rating ([2]; paint 10 ppm, Phase 1 Chall 2, day 1) | growth rating ([2]; paint 10 ppm, Phase 1 Chall 2, day 3) | growth rating ([2]; paint 10 ppm, Phase 1 Chall 2, day 7) | growth rating ([2]; paint 10 ppm, Phase 1 Chall 3, day 1) | growth rating ([2]; paint 10 ppm, Phase 1 Chall 3, day 3) | growth rating ([2]; paint 10 ppm, Phase 1 Chall 3, day 7) | growth rating ([2]; paint 25 ppm, Phase 1 Chall 1, day 1) | growth rating ([2]; paint 25 ppm, Phase 1 Chall 2, day 1) | growth rating ([2]; paint 25 ppm, Phase 1 Chall 3, day 1) | growth rating ([2]; paint 25 ppm, Phase 1 Chall 3, day 3) | growth rating ([2]; paint 50 ppm, Phase 1 Chall 1, day 1) | growth rating ([2]; paint 50 ppm, Phase 1 Chall 2, day 1) | growth rating ([2]; paint 50 ppm, Phase 1 Chall 3, day 1) | growth rating ([2]; paint 100 ppm, Phase 1 Chall 1, day 1)
2: growth rating ([1]; latex 50 ppm, Phase 1 Chall 1, day 3) | growth rating ([1]; latex 50 ppm, Phase 1 Chall 1, day 7) | growth rating ([1]; latex 500 ppm, Phase 1 Chall 3, day 3) | growth rating ([1]; latex 750 ppm, Phase 1 Chall 1, day 3) | growth rating ([1]; latex 750 ppm, Phase 1 Chall 3, day 1)
